Results: patent US20150352108A1, “AMINO-PYRIMIDINE COMPOUNDS AS INHIBITORS OF TBK1 AND/OR IKK EPSILON” (Alzheimer's Institute of America, priority 2009, published 2015)

target: T1, IKKε (Homo sapiens, UniProt Q14164); experiment: In-vitro IKKε kinase assay ([γ33]ATP filter-plate); assay type: biochemical; conditions: text bins; read-out: IC50 for inhibition of the kinase activity of IKKε
T1 construct: His-tag; made in house; host or cells: Sf9 insect cells
T1 sequence (Q14164 1-716): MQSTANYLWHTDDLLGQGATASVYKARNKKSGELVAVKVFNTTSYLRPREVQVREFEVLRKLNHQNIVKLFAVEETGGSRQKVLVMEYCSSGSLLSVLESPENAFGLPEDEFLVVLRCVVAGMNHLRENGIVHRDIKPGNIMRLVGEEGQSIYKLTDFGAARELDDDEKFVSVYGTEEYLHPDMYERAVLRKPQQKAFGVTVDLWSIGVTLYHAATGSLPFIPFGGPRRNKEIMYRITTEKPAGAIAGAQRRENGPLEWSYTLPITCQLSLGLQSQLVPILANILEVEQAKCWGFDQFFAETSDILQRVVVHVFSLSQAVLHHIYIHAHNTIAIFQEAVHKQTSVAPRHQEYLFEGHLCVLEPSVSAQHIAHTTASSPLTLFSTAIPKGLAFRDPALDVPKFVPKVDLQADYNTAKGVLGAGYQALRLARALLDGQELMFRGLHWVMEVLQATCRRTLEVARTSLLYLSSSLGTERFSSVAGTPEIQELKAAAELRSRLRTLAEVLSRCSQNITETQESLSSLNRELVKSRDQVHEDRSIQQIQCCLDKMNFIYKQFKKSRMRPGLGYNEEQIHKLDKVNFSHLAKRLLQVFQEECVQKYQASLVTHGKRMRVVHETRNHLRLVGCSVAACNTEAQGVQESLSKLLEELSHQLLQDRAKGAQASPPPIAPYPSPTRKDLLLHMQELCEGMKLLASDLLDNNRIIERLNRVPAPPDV
Method: IKKε enzyme was produced as a His-tag fusion in Sf9 cells and used at a final concentration of […]. TBK1 enzyme was produced as a His-tag fusion in Sf9 cells and used at a final concentration of 0.1 μg/ml. Kinase reactions were carried out in reaction buffer using myelin basic protein (Millipore, Ballerica, Mass.) or casein (Sigma, St. Louis, Mo.) as substrate at an ATP concentration equal to twice the Km,ATP value for each enzyme, corresponding to 32 μM ATP for IKKε and 60 μM ATP for TBK1, in the presence of 0.3 μCi [γ^33]ATP (PerkinElmer, Waltham, Mass.). Final enzyme concentrations were 0.1 or 0.015 μg/ml (IKKε) and 0.1 or 0.02 μg/ml (TBK1), representing “normal” and “sensitized” assay conditions respectively. Test compounds (or DMSO solvent as a control) were added prior to initiation of the reactions. Reactions were terminated after 30-45 minutes by adding 3% phosphoric acid. Terminated reactions were transferred to P-81 cellulose phosphate filterplates (Whatman, Inc., Piscataway, N.J.) and washed with 1% phosphoric acid on a vacuum apparatus. After air drying, scintillant (PerkinElmer, Waltham, Mass.) was added and the plates were read on a PerkinElmer TopCount NXT instrument. Counts were normalized to DMSO controls after background subtraction.

SMILES	IC50 [nM]
CC(C)(C)c1cccc(Nc2nccc(-c3cccc(C#N)c3)n2)c1 [compound 300]	50 to 500
COc1cc(NC(=O)NC2CCN(C)CC2)cc(Nc2nccc(-c3ccc(OC)c(C#N)c3)n2)c1 [compound 388]	50 to 500
CN1CCN(C2CCN(c3ccc(-c4ccnc(Nc5ccc(N6CCOCC6)cc5)n4)cc3C#N)CC2)CC1 [Example 213, 2-[4-(4-Methylpiperazin-1-yl)piperidin-1-yl]-5-(2-{[4-(morpholin-4-yl)phenyl]amino}pyrimidin-4-yl)benzonitrile]	50 to 500
N#Cc1cc(-c2ccnc(Nc3ccc(N4CCOCC4)cc3)n2)ccc1OCC1CCN(C(=O)C2C[C@H]2F)CC1 (stereo partly drawn) [Example 108, 2-[(1-{[(2R)-2-fluorocyclopropyl]carbonyl}piperidin-4-yl)methoxy]-5-(2-{[4-(morpholin-4-yl)phenyl]amino}pyrimidin-4-yl)benzonitrile]	50 to 500
CC(=O)N1CC(COc2ccc(-c3ccnc(Nc4ccc(N5CCOCC5)cc4)n3)cc2C#N)C1 [Example 125, 2-[(1-acetylazetidin-3-yl)methoxy]-5-(2-{[4-(morpholin-4-yl)phenyl]amino}pyrimidin-4-yl)benzonitrile]	50 to 500
CC(Oc1ccc(-c2ccnc(Nc3ccc(N4CCOCC4)cc3)n2)cc1C#N)C(=O)O (stereo not drawn) [Example 265, 2-[2-Cyano-4-(2-{[4-(morpholin-4-yl)phenyl]amino}pyrimidin-4-yl)phenoxy]propanoic acid]	50 to 500
COc1ccc(-c2ccnc(Nc3cccc(NC(=O)NCCO)c3)n2)cc1C#N [compound 301, 1-(3-{[4-(3-Cyano-4-methoxyphenyl)pyrimidin-2-yl]amino}phenyl)-3-(2-hydroxyethyl)urea]	5 to 50
N#Cc1cc(-c2ccnc(Nc3ccc(N4CCOCC4)cc3)n2)ccc1OC1CCN(C(=O)Cn2ccnc2)CC1 [Example 139, 2-{[1-(1H-imidazol-1-ylacetyl)piperidin-4-yl]oxy}-5-(2-{[4-(morpholin-4-yl)phenyl]amino}pyrimidin-4-yl)benzonitrile]	5 to 50
COc1cc(NC(=O)NC2CCCC2)cc(Nc2nccc(-c3ccc(OC4CCN(C(C)=O)CC4)c(C#N)c3)n2)c1 [compound 333, 1-{3-[(4-{4-[(1-Acetylpiperidin-4-yl)oxy]-3-cyanophenyl}pyrimidin-2-yl)amino]-5-methoxyphenyl}-3-cyclopentylurea]	5 to 50
CC(C)NC(=O)N1CCC(Oc2ccc(-c3ccnc(Nc4ccc(N5CCOCC5)cc4)n3)cc2C#N)CC1 [Example 37, 4-[2-Cyano-4-(2-{[4-(morpholin-4-yl)phenyl]amino}pyrimidin-4-yl)phenoxy]-N-(propan-2-yl)piperidine-1-carboxamide]	50 to 500
N#Cc1cc(-c2ccnc(Nc3ccc(N4CCOCC4)cc3)n2)ccc1NC(=O)Cc1ccccc1 [compound 435, N-[2-cyano-4-(2-{[4-(morpholin-4-yl)phenyl]amino}pyrimidin-4-yl)phenyl]-2-phenylacetamide]	50 to 500
COc1cc(NC(C)=O)cc(Nc2nccc(-c3ccc(OC)c(C#N)c3)n2)c1 [Example 279, N-(3-{[4-(3-Cyano-4-methoxyphenyl)pyrimidin-2-yl]amino}-5-methoxyphenyl) acetamide]	5 to 50
N#Cc1cc(-c2ccnc(Nc3ccc(N4CCOCC4)cc3)n2)ccc1NC(=O)c1cccnc1 [Example 204, N-[2-cyano-4-(2-{[4-(morpholin-4-yl)phenyl]amino}pyrimidin-4-yl)phenyl]pyridine-3-carboxamide]	50 to 500
COc1ccc(-c2ccnc(Nc3ccc(OC)c(OC4CCN(C)CC4)c3)n2)cc1C#N [Example 289, 2-Methoxy-5-[2-({4-methoxy-3-[(1-methylpiperidin-4-yl)oxy]phenyl}amino)pyrimidin-4-yl]benzonitrile]	50 to 500
COc1cc(Nc2nccc(-c3ccc(OC4CCOCC4)c(C#N)c3)n2)ccc1N1CCC(N2CCN(C)CC2)CC1 [compound 514, 5-[2-({3-methoxy-4-[4-(4-methylpiperazin-1-yl)piperidin-1-yl]phenyl}amino)pyrimidin-4-yl]-2-(tetrahydro-2H-pyran-4-yloxy)benzonitrile]	50 to 500
CN(C)c1cccc(Nc2nccc(-c3cccc(C#N)c3)n2)c1 [compound 379, 3-(2-{[3-(Dimethylamino)phenyl]amino}pyrimidin-4-yl)benzonitrile]	50 to 500
COc1ccc(Nc2nccc(-c3cccc(C#N)c3)n2)cc1OC [compound 352, 3-{2-[(3,4-Dimethoxyphenyl)amino]pyrimidin-4-yl}benzonitrile]	5 to 50
COc1cc(NC(=O)NCCCNC(C)=O)cc(Nc2nccc(-c3ccc(OC)c(C#N)c3)n2)c1 [compound 391, N-(3-{[(3-{[4-(3-Cyano-4-methoxyphenyl)pyrimidin-2-yl]amino}-5-methoxyphenyl)carbamoyl]amino}propyl) acetamide]	50 to 500

Results, then the molecule that gave them:

IC50 [nM]	SMILES
5 to 50	COc1ccc(-c2ccnc(Nc3cc(CNCCO)c(OC)c(OC)c3)n2)cc1C#N [Example 173, 5-{2-[(3-{[(2-Hydroxyethyl)amino]methyl}-4,5-dimethoxyphenyl)amino]pyrimidin-4-yl}-2-methoxybenzonitrile]
5 to 50	COc1cc(NC(=O)Nc2ccccc2)cc(Nc2nccc(-c3ccc(OC)c(C#N)c3)n2)c1 [compound 364, 1-(3-{[4-(3-Cyano-4-methoxyphenyl)pyrimidin-2-yl]amino}-5-methoxyphenyl)-3-phenylurea]
< 5	N#Cc1cc(-c2ccnc(Nc3cccc(Cn4cnnc4)c3)n2)ccc1OC1CCOCC1 [compound 595, 2-(Tetrahydro-2H-pyran-4-yloxy)-5-(2-{[3-(4H-1,2,4-triazol-4-ylmethyl)phenyl]amino}pyrimidin-4-yl)benzonitrile]
5 to 50	CC(=O)Nc1cccc(Nc2nccc(-c3ccc(OCc4ccccc4)c(C#N)c3)n2)c1 [Example 185, N-[3-({4-[4-(Benzyloxy)-3-cyanophenyl]pyrimidin-2-yl}amino)phenyl] acetamide]
5 to 50	COc1cc(NC(=O)CN(C)C)cc(Nc2nccc(-c3ccc(OC)c(C#N)c3)n2)c1 [compound 336, N-(3-{[4-(3-Cyano-4-methoxyphenyl)pyrimidin-2-yl]amino}-5-methoxyphenyl)-N~2~,N~2~- dimethylglycinamide]
5 to 50	N#Cc1cc(-c2ccnc(Nc3ccc(N4CCOCC4)cc3)n2)ccc1OCC1CN(C(=O)CO)C1 [Example 188, 2-{[1-(hydroxyacetyl)azetidin-3-yl]methoxy}-5-(2-{[4-(morpholin-4-yl)phenyl]amino}pyrimidin-4-yl)benzonitrile]
< 5	N#Cc1cc(-c2ccnc(Nc3cccc(NC(=O)NCCO)c3)n2)ccc1OC1CCOCC1 [compound 622, 1-[3-({4-[3-Cyano-4-(tetrahydro-2H-pyran-4-yloxy)phenyl]pyrimidin-2-yl}amino)phenyl]-3-(2-hydroxyethyl)urea]
5 to 50	CC(=O)N1CCC(CCOc2ccc(-c3ccnc(Nc4ccc(N5CCOCC5)cc4)n3)cc2C#N)CC1 [Example 156, 2-[2-(1-acetylpiperidin-4-yl)ethoxy]-5-(2-{[4-(morpholin-4-yl)phenyl}amino}pyrimidin-4-yl)benzonitrile]
< 5	N#Cc1cc(-c2ccnc(Nc3cccc(N4CCN(CCO)CC4)c3)n2)ccc1O[C@@H]1CCN(C(=O)CO)C1 [compound 604, 2-{[(3R)-1-(Hydroxyacetyl)pyrrolidin-3-yl]oxy}-5-[2-({3-[4-(2-hydroxyethyl)piperazin-1-yl]phenyl}amino)pyrimidin-4-yl]benzonitrile]
